d = 2'-deoxy (DNA)
Key:
P-gp = target: T1, P-gp (Mus musculus, UniProt P21447); assay: P-gp function in knockdown mice assessed by digoxin plasma pharmacokinetics; format: in vivo; conditions: iv, 1 mg/kg, digoxin 1 mg/kg injection
T1 construct: from tissue; host or cells: whole living mice (in vivo, intravenous digoxin 1 mg/kg after NC-siRNA or mdr1a-1 siRNA)
Description: For validation of silence efficiency in vivo, mdr1a-1 siRNA was injected via the tail vein of mice after diluted to 5, 10 and 15 nmol with saline in 200 μl. After 48 h, the mice were euthanized and the liver was collected for measurement of the P-gp protein expression using western blot. The P-gp function in gene knockdown mice was assessed using digoxin, a known P-gp substrate. NC-siRNA or mdr1a-1 siRNA was intravenously injected 2 days prior to the injection of digoxin (1mg/kg). Blood samples were collected at 5, 15, 30, min and 1, 2, 4, 6, 8, 12 hours post digoxin dose (n = 5/time-point for each group). The digoxin concentrations in samples were quantitatively analyzed by a published LC-MS/MS method.
Toxicokinetic parameters, including area under the plasma concentration-time curve (AUC), volume of distribution (Vd), clearance (CL), mean residence time (MRT) and terminal elimination half-life (t1/2), were calculated by non-compartmental analysis using WinNonlin 5.2 software (Pharsight Corporation, CA, USA). All the data were expressed as mean ± SD. Differences between groups were compared by Student’s t-test for analysis of unpaired data or one-way ANOVA. Statistical significance was accepted at P < 0.05.

BALB/C mice [1] = assay: Serum ALT and AST (TP-induced hepatotoxicity) in mice; format: in vivo; conditions: TP 1 mg/kg iv with P-gp modulator, 24 h after TP
Description: For TP plasma kinetic study and toxicological evaluation, mice were divided into four groups (n = 5 each) to collect blood and tissue samples: (1) normal + saline group; (2) 1.0 mg/kg TP + 15 nmol NC-siRNA group; (3) 1.0 mg/kg TP + 15 nmol mdr1a-siRNA group; (4) 1.0 mg/kg TP + 10 mg/kg tariquidar group. In order to avoid the complication caused by drug absorption or possible intestinal first-pass effect, TP and the inhibitor were intravenously administrated to mice. The siRNA group was intravenously injected with NC-siRNA or mdr1a-siRNA 2 days before TP dose. For TP + tariquidar group, the mice were received an intravenous tariquidar dose 20 min prior to the TP injection. Blood samples were collected at 2, 5, 10, 15, 30, 60 and 120 min after TP dosing. To assess the liver exposure of TP, liver tissue samples were collected from another set of mice at 5, 30, 60 and 120 min after dosing. Three TP groups were design for this experiment, including TP + NC-siRNA group, TP + mdr1a-siRNA group and TP + tariquidar group. The liver tissue samples were weighed and then homogenized in 10 volume (w:v) of ice-cold saline. The concentrations of TP in plasma and liver tissue were measured by a validated LC-MS/MS method. Prior to the above animal study, a preliminary experiment was performed to assess the possible differences in liver P-gp protein expression (Figure S1) and TP plasma kinetics between NC-siRNA treated mice and normal mice (with saline) (Figure S2 and supplemental Table 1). […] Therefore, NC-siRNA group was used as the control in the following animal study.
(§1) At 24 h of TP treatment, blood and liver tissue samples were collected from the mice in plasma kinetic study. Serum ALT and AST levels were determined with a CL8000 automated biochemical analyzer (Shimadzu, Japan) after serum was separated by centrifugation at 900 g for 10 min. Liver tissue samples were divided into two parts, the first half was kept at −80 °C until MDA and SOD measurements using MDA and SOD assay kits (Nanjing Jiancheng Bioengineering Institute, Nanjing, China) according to the manufacturer’s instructions. The other half was fixed with 4% paraformaldehyde solution and then dehydrated, embedded in paraffin and sectioned at a thickness of 5 μm. Four paraffin sections from each mouse were dewaxed, rehydrated and stained with hematoxylin-eosin (HE) for overall morphological evaluation. The total protein concentration was quantified by the BCA assay. Bcl-2 and Bax proteins were measured by western blot.

BALB/C mice [2] = assay: Liver histopathology (HE staining) in mice; format: in vivo; conditions: TP 1 mg/kg iv, 24 h, TP = NC-siRNA group, tariquidar and mdr1a-1 siRNA = given before TP
Description: For TP plasma kinetic study and toxicological evaluation, mice were divided into four groups (n = 5 each) to collect blood and tissue samples: (1) normal + saline group; (2) 1.0 mg/kg TP + 15 nmol NC-siRNA group; (3) 1.0 mg/kg TP + 15 nmol mdr1a-siRNA group; (4) 1.0 mg/kg TP + 10 mg/kg tariquidar group. In order to avoid the complication caused by drug absorption or possible intestinal first-pass effect, TP and the inhibitor were intravenously administrated to mice. The siRNA group was intravenously injected with NC-siRNA or mdr1a-siRNA 2 days before TP dose. For TP + tariquidar group, the mice were received an intravenous tariquidar dose 20 min prior to the TP injection. Blood samples were collected at 2, 5, 10, 15, 30, 60 and 120 min after TP dosing. To assess the liver exposure of TP, liver tissue samples were collected from another set of mice at 5, 30, 60 and 120 min after dosing. […] The concentrations of TP in plasma and liver tissue were measured by a validated LC-MS/MS method. […]
At 24 h of TP treatment, blood and liver tissue samples were collected from the mice in plasma kinetic study. Serum ALT and AST levels were determined with a CL8000 automated biochemical analyzer (Shimadzu, Japan) after serum was separated by centrifugation at 900 g for 10 min. […] The total protein concentration was quantified by the BCA assay. Bcl-2 and Bax proteins were measured by western blot.

Bcl-2/Bax = assay: Bcl-2 and Bax expression in mouse liver (western blot); format: in vivo; conditions: mice, TP 1 mg/kg iv, 24 h; tariquidar and mdr1a-siRNA = given before TP
Description: For protein extraction, the cells or mice liver tissues were homogenized in RIPA buffer and then centrifuged at 14,000 g at 4 °C for 30 min. The supernatant was collected and the protein concentration was measured using BCA assay. The sample (50 μg protein/sample) was then loaded on 12% polyacrylamide gels and transferred to polyvinylidene difluoride membranes (Millipore, USA). After blocked by 3% bovine serum albumin, the membranes were incubated with primary antibodies and HRP-conjugated secondary antibody, and then detected using the enhanced chemiluminescence plus detection system (Molecular Device, Lmax, USA). The density of each band was quantified by using image analysis software (Science Lab 2005 Image Guage; Tokyo, Japan).
as §1, with “The other half was fixed with 4% paraformaldehyde solution and then dehydrated, embedded in paraffin and sectioned at a thickness of 5 μm. Four paraffin sections from each mouse were dewaxed, rehydrated and stained with hematoxylin-eosin (HE) for overall morphological evaluation.” left out

[3] = Preliminary experiment: effect of NC-siRNA on pharmacokinetics of TP in mice; format: in vivo; conditions: TP 1.0 mg/kg
Description: Effect of NC-siRNA on pharmacokinetic of TP
Mice were divided into two groups to collect blood samples (n=5 each): (1) 1.0 mg/kg TP + saline group; (2) 1.0 mg/kg TP + 15 nmol NC-siRNA group. The siRNA group was intravenously injected with NC-siRNA 2 days before TP dose. Blood samples were collected at 2, 5, 10, 15, 30, 60 and 120 min after TP dosing. The concentrations of TP in plasma and liver were measured by a validated LC-MS/MS method.

mdr1a mRNA = assay: RNAi knockdown of mdr1a mRNA in CT26.WT cells (real-time PCR); format: cell-based, mouse; conditions: siRNA 80 pM with Lipofectamin 2000, 48 h after transfection
Description: CT26.WT cells, a mouse colon carcinoma cell line, were obtained from ATCC and maintained in RPMI-1640 supplemented with 10% fetal bovine serum. Cells were seeded to 6-well plates at a density of 5 × 10^5 cells/well and cultured for 24 h. Transfection was performed in Opti-MEM (Invitrogen, Carlsbad, CA, USA) with synthetic siRNA (80 pM) by using Lipofectamin 2000 (Invitrogen, Carlsbad, CA, USA) for 6 h and the medium was replaced with fresh RPMI-1640. This condition was optimized in our preliminary experiments based on the transfection efficiency and the cellular viability. Following incubation for 48 h, the cells were washed three times with phosphate buffered saline buffer (PBS) and total RNA and protein were collected.
Total RNA from CT26. WT cells was extracted with Trizol (Invitrogen, Carlsbad, CA, USA) according to the manufacturer’s instructions. RNA samples (1 μg) were reverse transcribed by adding oligo(dT)18 (MBI Fermentas, USA), dNTP, RNase inhibitor, and M-MLV reverse transcriptase (Takara, Japan), holding at room temperature for 10 min and incubating at 42 °C for 60 min. The samples were heated at 72 °C to inactivate enzymes for 10 min and stored at −20 °C. Real-time PCR was performed using sense and antisense primers. […] The relative amount of target mRNA was determined using the comparative threshold (Ct) method by normalizing target mRNA Ct values to those for β-actin (ΔCt). […]

T1 sequence (P21447 whole entry): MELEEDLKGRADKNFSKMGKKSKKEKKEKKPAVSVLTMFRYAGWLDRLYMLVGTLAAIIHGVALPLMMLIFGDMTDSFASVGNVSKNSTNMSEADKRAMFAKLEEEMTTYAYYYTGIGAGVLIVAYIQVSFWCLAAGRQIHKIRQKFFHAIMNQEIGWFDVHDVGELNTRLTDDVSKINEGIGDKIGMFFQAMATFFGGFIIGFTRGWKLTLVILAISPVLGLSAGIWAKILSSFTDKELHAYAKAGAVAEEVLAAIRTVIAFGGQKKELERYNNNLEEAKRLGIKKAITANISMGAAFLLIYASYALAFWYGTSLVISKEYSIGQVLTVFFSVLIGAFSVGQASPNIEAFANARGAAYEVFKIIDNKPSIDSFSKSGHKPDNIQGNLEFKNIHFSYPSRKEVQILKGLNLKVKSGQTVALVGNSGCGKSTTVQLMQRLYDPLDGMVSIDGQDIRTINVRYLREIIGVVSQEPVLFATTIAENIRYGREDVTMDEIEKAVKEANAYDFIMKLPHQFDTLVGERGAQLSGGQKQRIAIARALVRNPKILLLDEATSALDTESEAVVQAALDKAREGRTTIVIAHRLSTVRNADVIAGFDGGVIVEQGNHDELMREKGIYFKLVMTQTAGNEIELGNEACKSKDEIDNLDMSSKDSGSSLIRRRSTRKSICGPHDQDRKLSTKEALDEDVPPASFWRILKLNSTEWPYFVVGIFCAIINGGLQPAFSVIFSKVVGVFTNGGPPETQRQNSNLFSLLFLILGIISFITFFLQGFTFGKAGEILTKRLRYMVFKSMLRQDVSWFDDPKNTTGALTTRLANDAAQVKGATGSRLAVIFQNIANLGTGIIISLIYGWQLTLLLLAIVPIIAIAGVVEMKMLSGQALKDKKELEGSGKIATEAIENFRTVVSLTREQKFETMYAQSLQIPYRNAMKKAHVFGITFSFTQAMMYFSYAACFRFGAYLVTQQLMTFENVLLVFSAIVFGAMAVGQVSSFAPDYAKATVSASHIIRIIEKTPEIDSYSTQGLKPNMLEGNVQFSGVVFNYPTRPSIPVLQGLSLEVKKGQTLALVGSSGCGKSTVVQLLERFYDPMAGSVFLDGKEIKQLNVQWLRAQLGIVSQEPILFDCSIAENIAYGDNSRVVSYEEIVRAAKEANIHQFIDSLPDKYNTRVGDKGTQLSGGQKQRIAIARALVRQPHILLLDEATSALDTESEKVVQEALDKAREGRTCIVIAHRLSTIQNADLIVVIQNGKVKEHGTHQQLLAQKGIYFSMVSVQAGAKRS

## C[C@H]1O[C@@H](O[C@H]2[C@@H](O)C[C@H](O[C@H]3[C@@H](O)C[C@H](O[C@H]4CC[C@@]5(C)[C@H](CC[C@@H]6[C@@H]5C[C@@H](O)[C@]5(C)[C@@H](C7=CC(=O)OC7)CC[C@]65O)C4)O[C@@H]3C)O[C@@H]2C)C[C@H](O)[C@@H]1O [Digoxin, digoxin]
P-gp; NC-siRNA iv 2 days prior
  AUC(0-t): 3.36 ± 0.739 µg·h/mL
  Cmax: 1.74 ± 0.574 µg/mL
  MRT: 3.7 ± 0.3 h
  Vd: 2 ± 0.5 L/kg
  clearance: 0.253 L/h/kg
  half-life: 5.7 ± 1.3 h
P-gp; mdr1a-1 siRNA iv 2 days prior
  AUC(0-t): 8.77 ± 1.45 µg·h/mL
  Cmax: 2.26 ± 0.267 µg/mL
  MRT: 3.8 ± 0.4 h
  Vd: 0.6 ± 0.08 L/kg
  clearance: 0.0998 L/h/kg
  half-life: 4 ± 1.4 h

## COc1cc2c(cc1OC)CN(CCc1ccc(NC(=O)c3cc(OC)c(OC)cc3NC(=O)c3cnc4ccccc4c3)cc1)CC2 [tariquidar, Tariquidar, reference compound]
BALB/C mice [1]
  Serum ALT level, folds of the TP+NC-siRNA group: 1.2 folds
  Serum AST level, folds of the TP+NC-siRNA group: 1.9 folds
BALB/C mice [2]
  Histopathological changes in liver (HE): more severe
Bcl-2/Bax
  Bcl-2/Bax ratio in liver: markedly reduced the ratio

## NC-siRNA: negative control siRNA, sense 5′-UUCUCCGAACGUGUCACGUTT-3′ (antisense ACGUGACACGUUCGGAGAATT; sugars by position and backbone not given here; 3' and 5' ends modified with methylation and cholesterol) [reference compound]
[3]
  Differences in TP plasma concentrations and kinetic parameters, NC-siRNA treated vs normal (saline) mice: No significant differences

## mdr1a-2: murine mdr1a siRNA, sense 5′-r(AGA AGGAAC UAG AAG GUU CUG) d(TT)-3′ (sense AGAAGGAACUAGAAGGUUCUG; antisense CAGAACCUUCUAGUUCCUUCU; RNA, 3' dTdT, backbone and methylation of C not given here; 3' and 5' ends modified with methylation and cholesterol)
mdr1a mRNA
  Silencing efficiency on mdr1a mRNA: 51%

## mdr1a-3: murine mdr1a siRNA, sense 5′-GGCUGGACAAGCUGUGCAUGG-3′ (antisense AUGCACAGCUUGUCCAGCCAA; sugars by position and backbone not given here; 3' and 5' ends modified with methylation and cholesterol)
mdr1a mRNA
  Silencing efficiency on mdr1a mRNA: 46%

From publication PMC4488747, “Inhibition of P-glycoprotein Gene Expression and Function Enhances Triptolide-induced Hepatotoxicity in Mice” (Scientific Reports, 2015)
